{"source": "paper PMC11304236", "about": "“A Novel Drug Candidate for Sepsis Targeting Heparanase by Inhibiting Cytokine Storm” (Advanced Science, 2024)", "key": {"ICAM-1 and VCAM-1": {"test_system": "ICAM-1 and VCAM-1", "test": "ICAM-1 and VCAM-1 on LPS-stimulated RAW264.7 macrophages by flow cytometry", "format": "cell-based, mouse", "conditions": "CV122 50 µM 3 h, LPS 5 µg mL−1 1 h", "protocol": "Each group of mice was euthanized 24 h after LPS injection, spleens were harvested, red blood cells were lysed to detect splenocyte apoptosis, and the ratio of CD3^+CD4^+ T cells, CD3^+CD8^+ T cells, CD3^−CD19^+ B cells in spleen cells and lymph nodes quantified. Antibodies were: FITC‐Annexin V and PI; APC‐CD3, FITC‐CD4, PE‐CD8a, and PE‐CD19. Each group of mice was euthanized 12 h after LPS injection, Lung, kidney, and spleens were harvested, red blood cells were lysed to detect the ratio of macrophages in multiple organs, Antibodies were: FITC anti‐mouse F4/80; APC anti‐mouse CD86. Flow cytometry was used to quantify the adhesion molecules ICAM‐1 and VCAM‐1 on the surface of RAW264.7 cells and HUVECs. CV122 (50 µM) was incubated with the cells for 3 h, LPS (5 µg mL^−1) and TNF‐α (20 ng mL^−1) were used to stimulate the cells for 1 h, and the cells were collected. FITC anti‐mouse CD54 antibody and AF647 anti‐mouse CD106 antibody were incubated for 30 min at room temperature in the dark, PBS was added at 1000 rpm, and the cells were centrifuged for 7 min. A 200‐mesh copper mesh was used to filter the cells into a flow cytometer, and a flow cytometer (BD Biosciences) was used for detection."}, "LPS-induced septic mice [1]": {"test_system": "LPS-induced septic mice", "test": "LPS-induced sepsis mouse model, survival", "format": "in vivo", "conditions": "LPS group 0%", "protocol": "For LPS‐induced sepsis model experiments, 25 male C57BL/6J mice, 6–8 weeks old, weighing 20–25 g, were randomly divided into five groups (n = 5 in each group), and survival was examined. The abdominal cavity was injected with 40 mg kg^−1 LPS to induce sepsis. 30 min later, mice in group 1 were injected subcutaneously with 0.9% NaCl, mice in groups 2–4 were injected subcutaneously with CV122 (20 mg kg^−1), CV122 (30 mg kg^−1), and CV122 (40 mg kg^−1), respectively, and mice in group 5 were injected subcutaneously with Suramin (40 mg kg^−1). The status of the mice was observed and recorded every day."}, "LPS-induced septic mice [2]": {"test_system": "LPS-induced septic mice", "conditions": "mouse, in vivo"}, "lung tissue glycocalyx": {"test_system": "lung tissue glycocalyx", "test": "Cell surface glycocalyx in lung tissue of LPS-induced septic mice (WGA-FITC, lanthanum nitrate TEM)", "format": "in vivo, mouse", "protocol": "Lungs were harvested from LPS‐induced and CLP‐induced sepsis model mice, and frozen sections were prepared. HUVECs and RAW264.7 macrophages were incubated with CV122 for 3 h, and TNF‐α (20 ng mL^−1) and LPS (5 µg mL^−1) were used to stimulate cells for 1 h. Lung tissue, HUVECs, and RAW264.7 macrophages were fixed with 4% paraformaldehyde for 10 min before permeabilization with 0.5% Triton X‐100 for 10 min. The membrane was sealed with 4% skimmed milk powder and incubated at room temperature for 50 min. Primary antibodies were rabbit anti‐heparanase polyclonal antibodies overnight at 4 °C. The diluent of the secondary antibody FITC‐WGA‐lectin was kept at room temperature and protected from light for 1 h. Nuclei were stained with DAPI. After 120 s, images were acquired with a confocal microscope (LSM 800, Zeiss, Germany).\nThe endothelial glycocalyx was detected by electron microscopy. Mice were dissected and a needle was inserted into the left ventricle of the heart and perfused with lanthanum aldehyde, a solution consisting of 2% glutaraldehyde, 2% sucrose, 0.1 M sodium […] buffer (pH 7.3), and 2% lanthanum nitrate. Lanthanum was a trivalent cation that binds polysaccharide‐protein complexes with negatively charged glycoprotein parts.^[ [46] ^] The organs were cut into 1 mm^3 pieces and then the samples were fixed in lanthanide aldehyde fixative. […]"}}}
{"smiles": "COC1OC(COS(=O)(=O)O)C(OC2OC(C(=O)O)C(OC3OC(COS(=O)(=O)O)C(OC4OC(C(=O)O)C(OC5OC(COS(=O)(=O)O)C(O)C(O)C5NS(=O)(=O)O)C(OS(=O)(=O)O)C4O)C(OS(=O)(=O)O)C3NS(=O)(=O)O)C(O)C2OS(=O)(=O)O)C(O)C1NS(=O)(=O)O", "note": "(stereo not shown) [CV122]", "values": [{"measurement": "ICAM-1 and VCAM-1 expression", "setting": "ICAM-1 and VCAM-1", "value": "reversed after CV122 treatment"}, {"measurement": "survival rate", "setting": "LPS-induced septic mice [1]; 20 mg kg−1 s.c. 30 min after LPS 40 mg kg−1 i.p.", "value": 60, "unit": "%"}, {"measurement": "survival rate", "setting": "LPS-induced septic mice [1]; 40 mg kg−1 s.c. 30 min after LPS 40 mg kg−1 i.p., 80 h or longer observation", "value": 100, "unit": "%"}, {"measurement": "AST, ALT, BUN in serum and MPO in lung tissue", "setting": "LPS-induced septic mice [2]", "value": "returned to normal upon CV122 treatment, which was more effective than Suramin"}, {"measurement": "kidney damage (H&E)", "setting": "LPS-induced septic mice [2]", "value": "resolved by CV122"}, {"measurement": "liver damage (H&E)", "setting": "LPS-induced septic mice [2]", "value": "significantly improved by CV122"}, {"measurement": "lung inflammation by micro-CT imaging", "setting": "LPS-induced septic mice [2]", "value": "almost completely inhibit this progress"}, {"measurement": "lung pathological damage (H&E)", "setting": "LPS-induced septic mice [2]", "value": "significantly improved by CV122 administration"}, {"measurement": "lung weight/body weight ratio", "setting": "LPS-induced septic mice [2]", "value": "significantly decreased"}, {"measurement": "lung wet–dry weight ratio", "setting": "LPS-induced septic mice [2]", "value": "extremely significantly decreased"}, {"measurement": "spleen pathological changes (H&E)", "setting": "LPS-induced septic mice [2]", "value": "no pathological changes were observed in spleen tissue"}, {"measurement": "cell surface glycocalyx in lung tissue by WGA-FITC", "setting": "lung tissue glycocalyx", "value": "integrity of the glycocalyx was rescued"}, {"measurement": "lanthanum nitrate staining of lung vascular endothelial glycocalyx (TEM)", "setting": "lung tissue glycocalyx", "value": "significantly restored lanthanum nitrate staining"}]}
